{"source": "patent US10221167B2", "about": "“Hydroxyalkylamine- and hydroxycycloalkylamine-substituted diamine-arylsulfonamide compounds with selective activity in voltage-gated sodium channels” (Merck Sharp & Dohme Corp., priority 2015, dated 2019)", "key": {"[1]": {"molecular_target": "T1, human Nav1.7 channels stably expressed in HEK 293 cells (Homo sapiens, UniProt Q15858)", "T1 construct": "expressed in transfected cells", "T1 sequence (Q15858 whole entry)": "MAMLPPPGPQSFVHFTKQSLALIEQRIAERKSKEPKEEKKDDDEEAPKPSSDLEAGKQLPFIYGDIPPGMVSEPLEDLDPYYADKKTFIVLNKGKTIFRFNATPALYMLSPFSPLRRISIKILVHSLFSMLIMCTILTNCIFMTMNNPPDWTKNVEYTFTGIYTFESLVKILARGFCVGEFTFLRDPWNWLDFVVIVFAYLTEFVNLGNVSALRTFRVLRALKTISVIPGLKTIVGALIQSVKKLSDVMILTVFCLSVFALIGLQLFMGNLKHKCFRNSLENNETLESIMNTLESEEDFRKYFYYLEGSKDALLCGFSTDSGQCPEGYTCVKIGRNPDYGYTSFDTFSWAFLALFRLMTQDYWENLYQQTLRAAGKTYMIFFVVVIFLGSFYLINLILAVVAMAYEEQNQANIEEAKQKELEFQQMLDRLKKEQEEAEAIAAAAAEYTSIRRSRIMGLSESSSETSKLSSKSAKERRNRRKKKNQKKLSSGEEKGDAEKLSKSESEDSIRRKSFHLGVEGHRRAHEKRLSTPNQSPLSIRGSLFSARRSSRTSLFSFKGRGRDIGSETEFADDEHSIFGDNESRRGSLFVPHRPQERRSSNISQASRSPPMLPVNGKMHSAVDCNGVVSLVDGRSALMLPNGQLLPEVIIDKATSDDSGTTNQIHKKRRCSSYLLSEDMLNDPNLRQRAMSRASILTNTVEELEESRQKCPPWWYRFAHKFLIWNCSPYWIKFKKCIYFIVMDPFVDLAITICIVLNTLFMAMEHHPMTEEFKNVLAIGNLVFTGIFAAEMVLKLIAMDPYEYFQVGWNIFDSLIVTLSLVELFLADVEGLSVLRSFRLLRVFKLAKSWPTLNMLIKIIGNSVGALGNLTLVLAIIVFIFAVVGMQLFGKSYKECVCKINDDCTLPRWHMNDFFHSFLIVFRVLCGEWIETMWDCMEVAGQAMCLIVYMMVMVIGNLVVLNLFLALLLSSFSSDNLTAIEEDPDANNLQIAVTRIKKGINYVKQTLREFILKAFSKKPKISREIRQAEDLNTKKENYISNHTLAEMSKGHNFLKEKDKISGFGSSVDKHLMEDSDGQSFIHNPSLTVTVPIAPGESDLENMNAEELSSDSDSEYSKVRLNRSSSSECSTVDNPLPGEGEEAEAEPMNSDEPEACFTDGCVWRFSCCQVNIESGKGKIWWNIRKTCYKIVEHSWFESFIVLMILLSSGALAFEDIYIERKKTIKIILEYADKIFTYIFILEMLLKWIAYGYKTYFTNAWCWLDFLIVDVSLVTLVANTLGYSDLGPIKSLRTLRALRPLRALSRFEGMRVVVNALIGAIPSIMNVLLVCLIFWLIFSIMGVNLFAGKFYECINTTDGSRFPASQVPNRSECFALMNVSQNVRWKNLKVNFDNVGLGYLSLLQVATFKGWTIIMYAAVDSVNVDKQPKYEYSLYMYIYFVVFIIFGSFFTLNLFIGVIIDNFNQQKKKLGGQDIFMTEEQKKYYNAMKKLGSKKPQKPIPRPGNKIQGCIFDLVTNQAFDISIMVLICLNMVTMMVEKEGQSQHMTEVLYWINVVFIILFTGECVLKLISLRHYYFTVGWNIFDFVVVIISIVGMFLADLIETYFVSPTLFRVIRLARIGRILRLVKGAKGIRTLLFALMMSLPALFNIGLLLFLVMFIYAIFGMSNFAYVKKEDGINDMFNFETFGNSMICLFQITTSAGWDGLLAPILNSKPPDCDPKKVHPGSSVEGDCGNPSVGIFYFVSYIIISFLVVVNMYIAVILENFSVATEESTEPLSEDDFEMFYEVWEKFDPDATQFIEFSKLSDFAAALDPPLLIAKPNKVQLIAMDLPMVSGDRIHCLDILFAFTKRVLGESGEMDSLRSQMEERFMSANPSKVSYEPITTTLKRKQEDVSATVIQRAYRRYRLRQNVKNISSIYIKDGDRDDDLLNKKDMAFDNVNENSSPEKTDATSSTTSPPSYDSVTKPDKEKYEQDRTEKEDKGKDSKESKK", "assay": "IonWorks Quattro automated patch-clamp, state-dependent inhibition of Nav1.7", "assay_type": "cell-based", "conditions": "inactivated state block, double-pulse protocol, holding -100 mV, read-out: potency for the Nav 1.7 sodium ion channel (as measured by IonWorks)", "procedure": "(§1) Compounds were tested on human Nav1.7 and Nav1.5 channels stably expressed in HEK 293 cells. […] Cells were sealed on a planar substrate using the Population Patch Plate (PPC) technology. Electrical access was obtained using both nystatin and amphotericin. A double-pulse protocol was used for the determination of IC50 values for inactivated state block. Nav1.7 and Nav1.5 expressing cells were voltage clamped at −100 mV and −110 mV, respectively. A depolarizing prepulse to −10 mV (Nav1.7) or −30 mV (Nav1.5) for 1000 ms followed by a 10 ms repolarization to −100 mV (Nav1.7) or −110 mV (Nav1.5) was given to generate fractional channel inactivation of ˜50%, followed by a 10 ms test pulse to −10 mV (Nav1.7) or −30 mV (Nav1.5) to measure peak current in control conditions and after compound addition. The following recording solutions were used (mM). External: 150 NaCl, 2 CaCl2, 5 KCl, 1 Mg Cl2, 10 HEPES, 12 Dextrose; internal: 120 CsF, 30 CsCl, 10 EGTA, 5 HEPES, 5 NaF, 2 MgCl2.\n(§2) For all electrophysiology experiments, offline analysis was used to determine percent inhibition as a function of drug concentration. IC50 values were determined by fitting to the Hill equation.\n(§3) The various compounds in Examples 1 through 4 and Tables 1 through 3 exemplified above were assayed for activity and selectivity using the foregoing IonWorks® technique. The results are reported in the following paragraph in a format expressing the identification of the compound with reference Example and compound (e.g. Ex 1-1 is Example 1, compound 1) followed by the observed potency in nM and the ratio of Nav1.7 potency:Nav 1.5 potency as described here. […]"}, "[2]": {"molecular_target": "T2, human Nav1.5 channels stably expressed in HEK 293 cells (Homo sapiens, UniProt Q14524)", "T2 construct": "expressed in transfected cells", "T2 sequence (Q14524 whole entry)": "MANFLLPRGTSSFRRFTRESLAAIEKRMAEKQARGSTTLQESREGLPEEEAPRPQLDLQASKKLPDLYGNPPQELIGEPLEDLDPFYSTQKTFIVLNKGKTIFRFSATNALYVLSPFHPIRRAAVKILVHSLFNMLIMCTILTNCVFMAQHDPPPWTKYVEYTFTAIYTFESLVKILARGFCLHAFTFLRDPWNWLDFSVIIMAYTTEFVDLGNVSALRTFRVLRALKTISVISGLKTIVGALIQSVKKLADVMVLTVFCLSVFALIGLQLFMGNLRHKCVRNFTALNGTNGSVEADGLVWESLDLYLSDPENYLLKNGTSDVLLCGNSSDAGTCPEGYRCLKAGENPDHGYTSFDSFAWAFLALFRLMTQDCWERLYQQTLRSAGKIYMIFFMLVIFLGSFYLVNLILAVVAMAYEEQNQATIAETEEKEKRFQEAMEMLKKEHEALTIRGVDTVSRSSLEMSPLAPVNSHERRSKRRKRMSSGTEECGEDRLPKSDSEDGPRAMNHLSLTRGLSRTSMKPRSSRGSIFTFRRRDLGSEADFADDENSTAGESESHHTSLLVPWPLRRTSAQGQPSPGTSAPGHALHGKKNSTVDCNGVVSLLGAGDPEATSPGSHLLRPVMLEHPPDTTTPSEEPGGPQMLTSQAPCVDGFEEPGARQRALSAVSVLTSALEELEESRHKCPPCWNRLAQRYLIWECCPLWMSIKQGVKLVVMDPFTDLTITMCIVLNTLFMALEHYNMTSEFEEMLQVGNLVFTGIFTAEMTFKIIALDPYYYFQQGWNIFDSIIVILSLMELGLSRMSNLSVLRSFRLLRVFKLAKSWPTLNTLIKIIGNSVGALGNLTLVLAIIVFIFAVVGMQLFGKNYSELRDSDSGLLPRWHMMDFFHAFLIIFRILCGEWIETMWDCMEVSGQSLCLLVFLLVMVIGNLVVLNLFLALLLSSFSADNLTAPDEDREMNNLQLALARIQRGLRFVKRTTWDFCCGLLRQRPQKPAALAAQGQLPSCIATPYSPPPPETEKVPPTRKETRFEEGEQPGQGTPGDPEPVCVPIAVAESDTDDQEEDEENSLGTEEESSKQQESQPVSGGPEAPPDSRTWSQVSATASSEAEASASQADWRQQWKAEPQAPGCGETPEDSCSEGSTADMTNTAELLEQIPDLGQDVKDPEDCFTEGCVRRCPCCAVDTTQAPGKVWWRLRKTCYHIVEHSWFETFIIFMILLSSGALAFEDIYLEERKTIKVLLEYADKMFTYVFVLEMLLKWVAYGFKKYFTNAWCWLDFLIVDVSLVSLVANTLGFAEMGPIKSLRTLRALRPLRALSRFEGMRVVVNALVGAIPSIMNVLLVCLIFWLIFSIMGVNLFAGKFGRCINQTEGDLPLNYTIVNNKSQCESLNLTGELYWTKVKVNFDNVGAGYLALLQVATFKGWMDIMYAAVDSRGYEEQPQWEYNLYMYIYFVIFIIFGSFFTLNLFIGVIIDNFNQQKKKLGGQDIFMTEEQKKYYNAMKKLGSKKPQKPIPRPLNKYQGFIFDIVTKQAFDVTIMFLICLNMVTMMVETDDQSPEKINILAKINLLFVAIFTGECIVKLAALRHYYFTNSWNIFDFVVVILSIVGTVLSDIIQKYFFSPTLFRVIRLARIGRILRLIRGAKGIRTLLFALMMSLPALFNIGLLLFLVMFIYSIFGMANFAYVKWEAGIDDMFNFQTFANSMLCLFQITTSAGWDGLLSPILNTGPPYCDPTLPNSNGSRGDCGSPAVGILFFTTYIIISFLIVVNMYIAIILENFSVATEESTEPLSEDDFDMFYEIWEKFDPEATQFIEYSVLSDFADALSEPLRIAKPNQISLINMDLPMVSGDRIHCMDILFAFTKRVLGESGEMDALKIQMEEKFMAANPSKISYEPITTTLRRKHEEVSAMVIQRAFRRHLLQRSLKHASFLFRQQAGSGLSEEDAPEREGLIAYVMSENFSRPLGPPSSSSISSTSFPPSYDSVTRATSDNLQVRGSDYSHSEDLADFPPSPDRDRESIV", "assay": "IonWorks Quattro automated patch-clamp, Nav1.5 (selectivity ratio versus Nav1.7)", "assay_type": "cell-based", "conditions": "selectivity for Nav1.7 over Nav1.5, inactivated state block", "procedure": "as §1, §2, §3"}}, "note": "pIC50: −log10 of the molar value.", "data": [{"smiles": "NC[C@@H](CO)NCCCCNc1cc(F)c(S(=O)(=O)Nc2nccs2)cc1Cl", "note": "[EX 2-35, 4-[(4-{[(1S)-2-amino-1-(hydroxymethyl)ethyl]amino}butyl)amino]-5-chloro-2-fluoro-N-1,3-thiazol-2-ylbenzenesulfonamide]", "values": [{"measurement": "pIC50", "setting": "[1]", "result": 7.82}]}, {"smiles": "NC[C@@H](CO)NCCCCNc1cc(F)c(S(=O)(=O)Nc2ncns2)cc1Cl", "note": "[EX 2-37, 4-[(4-{[(1S)-2-amino-1-(hydroxymethyl)ethyl]amino}butyl)amino]-5-chloro-2-fluoro-N-1,2,4-thiadiazol-5-ylbenzenesulfonamide]", "values": [{"measurement": "pIC50", "setting": "[1]", "result": 7.57}, {"measurement": "ratio of Nav1.7 potency:Nav 1.5 potency", "setting": "[2]", "result": "≥ 1222"}]}, {"smiles": "O=S(=O)(Nc1ncc(F)s1)c1cc(Cl)c(NCCCCN[C@@H]2CNC[C@H]2O)cc1F", "note": "[EX 2-20, 5-chloro-2-fluoro-N-(5-fluoro-1,3-thiazol-2-yl)-4-[(4-{[(3R,4R)-4-hydroxypyrrolidin-3-yl]amino}butyl)amino] benzenesulfonamide]", "values": [{"measurement": "pIC50", "setting": "[1]", "result": 7.40}]}, {"smiles": "O=S(=O)(Nc1nccs1)c1cc(Cl)c(NCCCCN[C@H]2CNC[C@@H]2O)cc1F", "note": "[EX 2-38]", "values": [{"measurement": "pIC50", "setting": "[1]", "result": 7.40}]}, {"smiles": "O=S(=O)(Nc1ncc(F)s1)c1cc(Cl)c(NCCCCNCC2(O)CNC2)cc1F", "note": "[EX 2-6, 5-chloro-2-fluoro-N-(5-fluoro-1,3-thiazol-2-yl)-4-[(4-{[(3-hydroxyazetidin-3-yl)methyl]amino}butyl)amino] benzenesulfonamide]", "values": [{"measurement": "pIC50", "setting": "[1]", "result": 7.85}, {"measurement": "ratio of Nav1.7 potency:Nav 1.5 potency", "setting": "[2]", "result": "≥ 2357"}]}, {"smiles": "CC1(O)CN[C@H](CNCCCCNc2cc(F)c(S(=O)(=O)Nc3nccs3)cc2Cl)C1", "note": "(stereo partly drawn) [EX 3-1, 5-chloro-2-fluoro-4-((4-((((2S)-4-hydroxy-4-methylpyrrolidin-2-yl)methyl)amino)butyl)amino)-N-(thiazol-2-yl)benzenesulfonamide]", "values": [{"measurement": "pIC50", "setting": "[1]", "result": 7.00}, {"measurement": "ratio of Nav1.7 potency:Nav 1.5 potency", "setting": "[2]", "result": "≥ 330"}]}, {"smiles": "O=S(=O)(Nc1ncc(F)s1)c1cc(Cl)c(NCCCCNC[C@H]2C[C@H](O)CN2)cc1F", "note": "[EX 2-24, 5-chloro-2-fluoro-N-(5-fluoro-1,3-thiazol-2-yl)-4-{[4-({[(2R,4S)-4-hydroxypyrrolidin-2-yl]methyl}amino)butyl]amino} benzenesulfonamide]", "values": [{"measurement": "pIC50", "setting": "[1]", "result": 7.52}]}, {"smiles": "O=S(=O)(Nc1ncns1)c1cc(Cl)c(NCCCCNCCNCCO)cc1F", "note": "[EX 2-4, 5-chloro-2-fluoro-4-{[4-({2-[(2-hydroxyethyl)amino]ethyl}amino)butyl]amino}-N-1,2,4-thiadiazol-5-ylbenzenesulfonamide]", "values": [{"measurement": "pIC50", "setting": "[1]", "result": 7.46}, {"measurement": "ratio of Nav1.7 potency:Nav 1.5 potency", "setting": "[2]", "result": "≥ 943"}]}, {"smiles": "NCC(O)CNCCCCNc1cc(F)c(S(=O)(=O)Nc2ncc(F)s2)cc1Cl", "note": "(single isomer, unassigned) [EX 2-18, 4-[(4-{[(2S or 2R)-3-amino-2-hydroxypropyl]amino}butyl)amino]-5-chloro-2-fluoro-N-(5-fluoro-1,3-thiazol-2-yl)benzenesulfonamide]", "values": [{"measurement": "pIC50", "setting": "[1]", "result": 7.80}, {"measurement": "ratio of Nav1.7 potency:Nav 1.5 potency", "setting": "[2]", "result": "≥ 1000"}]}, {"smiles": "O=S(=O)(Nc1nccs1)c1cc(Cl)c(NCCCCNCC2(O)CNC2)cc1F", "note": "[EX 2-28, 5-chloro-2-fluoro-4-[(4-{[(3-hydroxyazetidin-3-yl)methyl]amino}butyl)amino]-N-1,3-thiazol-2-ylbenzenesulfonamide]", "values": [{"measurement": "pIC50", "setting": "[1]", "result": 7.74}]}, {"smiles": "O=S(=O)(Nc1ncns1)c1cc(Br)c(NCCCCN[C@H]2CNC[C@@H]2O)cc1F", "note": "[EX 2-43, 5-bromo-2-fluoro-4-((4-(((3S,4S)-4-hydroxypyrrolidin-3-yl)amino)butyl)amino)-N-(1,2,4-thiadiazol-5-yl)benzenesulfonamide]", "values": [{"measurement": "pIC50", "setting": "[1]", "result": 7.82}]}, {"smiles": "NCC[C@@H](CO)NCCCCNc1cc(F)c(S(=O)(=O)Nc2ncc(F)s2)cc1Cl", "note": "[EX 2-33, 4-[(4-{[(1S)-3-amino-1-(hydroxymethyl)propyl]amino}butyl)amino]-5-chloro-2-fluoro-N-(5-fluoro-1,3-thiazol-2-yl)benzenesulfonamide]", "values": [{"measurement": "pIC50", "setting": "[1]", "result": 7.70}]}, {"smiles": "O=S(=O)(Nc1ncc(F)s1)c1cc(Cl)c(NCCCCNCCNCCO)cc1F", "note": "[EX 2-9, 5-chloro-2-fluoro-N-(5-fluoro-1,3-thiazol-2-yl)-4-{[4-({2-[(2-hydroxyethyl)amino]ethyl}amino)butyl]amino} benzenesulfonamide]", "values": [{"measurement": "pIC50", "setting": "[1]", "result": 7.54}, {"measurement": "ratio of Nav1.7 potency:Nav 1.5 potency", "setting": "[2]", "result": "≥ 1138"}]}, {"smiles": "NCC[C@@H](CO)NCCCCNc1cc(F)c(S(=O)(=O)Nc2ncns2)cc1Cl", "note": "[EX 2-34, 4-[(4-{[(1S)-3-amino-1-(hydroxymethyl)propyl]amino}butyl)amino]-5-chloro-2-fluoro-N-1,2,4-thiadiazol-5-ylbenzenesulfonamide]", "values": [{"measurement": "pIC50", "setting": "[1]", "result": 7.74}]}, {"smiles": "NCC(O)CNCCCCNc1cc(F)c(S(=O)(=O)Nc2ncc(F)s2)cc1Cl", "note": "(single isomer, unassigned) [EX 2-17, 4-[(4-{[(2R or 2S)-3-amino-2-hydroxypropyl]amino}butyl)amino]-5-chloro-2-fluoro-N-(5-fluoro-1,3-thiazol-2-yl)benzenesulfonamide]", "values": [{"measurement": "pIC50", "setting": "[1]", "result": 7.82}]}, {"smiles": "NCC(O)CNCCCCNc1cc(F)c(S(=O)(=O)Nc2nccs2)cc1Cl", "note": "(single isomer, unassigned) [EX 2-29, 4-[(4-{[(2R or 2S)-3-amino-2-hydroxypropyl]amino}butyl)amino]-5-chloro-2-fluoro-N-1,3-thiazol-2-ylbenzenesulfonamide]", "values": [{"measurement": "pIC50", "setting": "[1]", "result": 7.74}]}, {"smiles": "NCC[C@@H](CO)NCCCCNc1cc(F)c(S(=O)(=O)Nc2nccs2)cc1Cl", "note": "[EX 2-32, 4-[(4-{[(1S)-3-amino-1-(hydroxymethyl)propyl]amino}butyl)amino]-5-chloro-2-fluoro-N-1,3-thiazol-2-ylbenzenesulfonamide]", "values": [{"measurement": "pIC50", "setting": "[1]", "result": 7.72}]}, {"smiles": "NC[C@H](O)CNCCCCNc1cc(F)c(S(=O)(=O)Nc2ncns2)cc1Cl", "note": "[EX 1-1, 4-[(4-{[(2S)-3-amino-2-hydroxypropyl]amino}butyl)amino]-5-chloro-2-fluoro-N-1,2,4-thiadiazol-5-ylbenzenesulfonamide]", "values": [{"measurement": "pIC50", "setting": "[1]", "result": 7.30}, {"measurement": "ratio of Nav1.7 potency:Nav 1.5 potency", "setting": "[2]", "result": "≥ 660"}]}, {"smiles": "NCC1(O)CN(CCCCNc2cc(F)c(S(=O)(=O)Nc3ncc(F)s3)cc2Cl)C1", "note": "[EX 1-2, 4-({4-[3-(aminomethyl)-3-hydroxyazetidin-1-yl]butyl}amino)-5-chloro-2-fluoro-N-(5-fluoro-1,3-thiazol-2-yl)benzenesulfonamide]", "values": [{"measurement": "pIC50", "setting": "[1]", "result": 7.70}]}, {"smiles": "O=S(=O)(Nc1ncc(F)s1)c1cc(Cl)c(NCCCCNC[C@H]2C[C@@H](O)CN2)cc1F", "note": "[EX 2-23, 5-chloro-2-fluoro-N-(5-fluoro-1,3-thiazol-2-yl)-4-{[4-({[(2R,4R)-4-hydroxypyrrolidin-2-yl]methyl}amino)butyl]amino} benzenesulfonamide]", "values": [{"measurement": "pIC50", "setting": "[1]", "result": 7.64}]}, {"smiles": "NCC(O)CNCCCCNc1cc(F)c(S(=O)(=O)Nc2nccs2)cc1Cl", "note": "(single isomer, unassigned) [EX 2-30, 4-[(4-{[(2S or 2R)-3-amino-2-hydroxypropyl]amino}butyl)amino]-5-chloro-2-fluoro-N-1,3-thiazol-2-ylbenzenesulfonamide]", "values": [{"measurement": "pIC50", "setting": "[1]", "result": 7.77}]}, {"smiles": "NC[C@@H](O)CNCCCCNc1cc(F)c(S(=O)(=O)Nc2ncns2)cc1Br", "note": "[EX 1-8, 4-[(4-{[(2R)-3-amino-2-hydroxypropyl]-amino}-butyl)amino]-5-bromo-2-fluoro-N-1,2,4-thiadiazol-5-yl-benzenesulfonamide]", "values": [{"measurement": "pIC50", "setting": "[1]", "result": 7.77}]}, {"smiles": "NC[C@@H](O)CNCCCCNc1cc(F)c(S(=O)(=O)Nc2ncns2)cc1Cl", "note": "[EX 1-6, 4-[(4-{[(2R)-3-amino-2-hydroxypropyl]-amino}butyl)amino]-5-chloro-2-fluoro-N-1,2,4-thiadiazol-5-yl-benzenesulfonamide]", "values": [{"measurement": "pIC50", "setting": "[1]", "result": 7.82}]}, {"smiles": "O=S(=O)(Nc1nccs1)c1cc(Cl)c(NCCCCN[C@@H]2CNC[C@H]2O)cc1F", "note": "[EX 2-31, 5-chloro-2-fluoro-4-[(4-{[(3R,4R)-4-hydroxypyrrolidin-3-yl]amino}butyl)amino]-N-1,3-thiazol-2-ylbenzenesulfonamide]", "values": [{"measurement": "pIC50", "setting": "[1]", "result": 7.52}]}, {"smiles": "O=S(=O)(Nc1ncc(F)s1)c1cc(Br)c(NCCCCNCC2(O)CNC2)cc1F", "note": "[EX 2-25, 5-bromo-2-fluoro-N-(5-fluoro-1,3-thiazol-2-yl)-4-[(4-{[(3-hydroxyazetidin-3-yl)methyl]amino}butyl)amino] benzenesulfonamide]", "values": [{"measurement": "pIC50", "setting": "[1]", "result": 7.82}]}, {"smiles": "O=S(=O)(Nc1ncns1)c1cc(Cl)c(NCCCCN[C@@H]2CNC[C@H]2O)cc1F", "note": "[EX 2-2, 5-chloro-2-fluoro-4-[(4-{[(3R,4R)-4-hydroxypyrrolidin-3-yl]amino}butyl)amino]-N-1,2,4-thiadiazol-5-ylbenzenesulfonamide]", "values": [{"measurement": "pIC50", "setting": "[1]", "result": 7.64}]}, {"smiles": "NC[C@H](CO)NCCCCNc1cc(F)c(S(=O)(=O)Nc2ncc(F)s2)cc1Cl", "note": "[EX 2-40, 4-[(4-{[(1R)-2-amino-1-(hydroxymethyl)ethyl]amino}butyl)amino]-5-chloro-2-fluoro-N-(5-fluoro-1,3-thiazol-2-yl)benzenesulfonamide]", "values": [{"measurement": "pIC50", "setting": "[1]", "result": 7.30}]}, {"smiles": "O=S(=O)(Nc1ncns1)c1cc(Br)c(NCCCCNCC2(O)CNC2)cc1F", "note": "[EX 1-5, 5-bromo-2-fluoro-4-[(4-{[(3-hydroxyazetidin-3-yl)methyl]amino}butyl)amino]-N-1,2,4-thiadiazol-5-ylbenzenesulfonamide]", "values": [{"measurement": "pIC50", "setting": "[1]", "result": 7.72}]}]}
